Assay results: article PMC9130233, “An inhibitor of RORγ for chronic pulmonary obstructive disease treatment” (Scientific Reports, 2022)

Legend:
human RORγ LBD = biological target: T1, human RORγ LBD (Homo sapiens, UniProt P51449); assay: RORγt-LBD co-activator ligand binding TR-FRET assay, human; conditions: n = 15
T1 construct: RORC-LBD region 229-497aa; made in house; host or cells: Escherichia coli BL21-DE3
Description: To identify small molecule RORγ inhibitors, we conducted in vitro screening using a TR-FRET binding assay to determine the inhibition of RORγ with a series of different compounds. With extensive effort and from hit identification to lead optimization, PCCR-1 was identified[29] (Fig. 1A). Based on the homology of the ligand binding domains (LBD) between different ROR isoforms (hRORα, hRORβ and hRORγ), slight variations have been observed in the LBD regions which possibly lead to differences in competitive binding between the isoforms (Fig. 1B). Simultaneous binding of a tracer and antibody results in an increase in fluorescence resonance energy transfer (FRET), which decreases with displacement of the tracer upon inhibitor binding.
The human and mouse RORγt cDNA clones were obtained from OriGene (MD USA). […] The next day, plate was read on Infinite F500 reader (Magellan Tecan Switzerland). […] The percent activity of each dilution was determined as the ratio of background corrected signal to the background corrected signal of wells receiving only DMSO. IC50 values were determined by fitting percent inhibition data in GraphPad Prism (version-5.01) software.

[1] = tested on: IL-17 cytokine from rat splenocytes; assay: IL-17 inhibition, rat splenocytes; assay type: cell-based; conditions: Splenocyte, read-out: potency, rat IL-17 inhibition
Alpha 1D = biological target: T2, Alpha 1D (Homo sapiens, UniProt P25100); assay: Cerep panel, Alpha 1D
T2 construct: Eurofins Cerep
Description: (§1) Based on the homology of the ligand binding domains, 3 different isoforms of ROR (hRORα, hRORβ and hRORγ) are reported. Small variations in the LBD regions possibly lead to differences in competitive binding between the nuclear receptors of the ROR isoforms (Fig. 1b). Similar to the assessment of RORγ binding assay, TR-FRET binding assays were also used to assess the affinity of PCCR-1 for other ROR isoforms. […] This was reconfirmed in cellular functional assays for the selected isoforms and nuclear receptors using Gal4 DBD with luciferase reporter system from Indigo (PA, USA). […] In addition, both cellular agonist and antagonist effects as well as for enzyme activity were evaluated with a known reference compound for each target, using a radiolabeled method (Eurofins Cerep, France, Table 1).

RARα = tested on: T3, RARα; assay: TR-FRET selectivity binding assay, RARα
T3 construct: purchased Invitrogen
Description: as §1
(§2) For selectivity, the ROR isoforms RORα, FXR, LXRα, LXRβ, RXR, RARα were incubated with compound for 60 min at 22 °C followed by detection mix containing respective agonist (All trans retinoic acid for RARα, T0901317 for LXRα, LXRβ, 9-cis Retinoic acid for RXR, GW-4064 for FXR) and coactivator peptide (FD22 for RORα, PGC1α for RXR, RARα, TRAP220 for LXRα, LXRβ, SRC2-2 for FXR) and Tb-anti GST antibody prepared in assay buffer were added into a 384-well white plate. Reading taken after overnight incubation and the data analysis done as per the protocol mentioned in RORγt-LBD and co-activator ligand binding assay.

NK3 = tested on: T4, NK3; assay: Cerep panel, NK3
T4 construct: Eurofins Cerep
Description: as §1

GABA Cl = assay: Cerep panel, GABA Cl
Description: as §1

[2] = tested on: Nuclear receptors (RORα, RARα, LXRα, LXRβ, RXR, FXR); assay: Cerep panel, nuclear receptors: binding assays; parameters: key: NSE No significant effect; V wk very weak (very low-level agonist activity seen with mPPARγ); conditions: at 10 µM
Description: as §1

Ca Channel (L type) = assay: Cerep panel, Ca channel (L type)
Description: as §1

[3] = tested on: IL-17A release in human PBMC; assay: IL-17A release, human PBMC under Th17 polarization conditions; assay type: cell-based; conditions: human PBMC under Th17 polarization condition, n = 2; read-out: hIL-17 (IL-17A) IC50
Experimental: An increase in the levels of Th17 dependent cytokine in the peripheral blood of COPD patients as compared to the Th1 and Th2 dependent cytokines has been well documented in a subset of COPD patients. A comparative study was performed under TCR activating conditions to evaluate the potencies of PCCR-1 for inhibition across Th1, Th2 and Th17 dependent cytokines using hPBMCs.
Human whole blood from healthy subjects were procured from Clinical Research Unit, Sanpada. Clinical Research Center Glenmark (Plot No. D, 508, Turbhe, TTC Industrial Area, MIDC, Sanpada, Navi Mumbai, Maharashtra 400705, India). PBMCs were isolated using heparinized blood with Ficoll Histopaque. Briefly, the cells were seeded in 96-well plate pre-coated with human anti-CD3 mAb (10 µg/mL), post 30 min of compound treatment cells were stimulated with human anti-CD28 mAb (2 µg/mL). After 72 h of culture, the supernatant was collected for Th1/Th2 cytokines; IFN-γ, IL-2, IL-4 and IL-10 and measured by ELISA. For Th17 polarization assay, the following cytokine cocktail was used: IL-1β (10 ng/ml), IL-23(10 ng/ml), IL-6 (50 ng/ml), TGF-β1 (3 ng/ml), IL-2 (20U/ml) and supernatants were used for measuring IL-17 and IL-22 by ELISA.

LXRβ = tested on: T5, LXRβ; assay: TR-FRET selectivity binding assay, LXRβ
T5 construct: purchased Invitrogen
Description: as §1, §2

T2 sequence (P25100 whole entry): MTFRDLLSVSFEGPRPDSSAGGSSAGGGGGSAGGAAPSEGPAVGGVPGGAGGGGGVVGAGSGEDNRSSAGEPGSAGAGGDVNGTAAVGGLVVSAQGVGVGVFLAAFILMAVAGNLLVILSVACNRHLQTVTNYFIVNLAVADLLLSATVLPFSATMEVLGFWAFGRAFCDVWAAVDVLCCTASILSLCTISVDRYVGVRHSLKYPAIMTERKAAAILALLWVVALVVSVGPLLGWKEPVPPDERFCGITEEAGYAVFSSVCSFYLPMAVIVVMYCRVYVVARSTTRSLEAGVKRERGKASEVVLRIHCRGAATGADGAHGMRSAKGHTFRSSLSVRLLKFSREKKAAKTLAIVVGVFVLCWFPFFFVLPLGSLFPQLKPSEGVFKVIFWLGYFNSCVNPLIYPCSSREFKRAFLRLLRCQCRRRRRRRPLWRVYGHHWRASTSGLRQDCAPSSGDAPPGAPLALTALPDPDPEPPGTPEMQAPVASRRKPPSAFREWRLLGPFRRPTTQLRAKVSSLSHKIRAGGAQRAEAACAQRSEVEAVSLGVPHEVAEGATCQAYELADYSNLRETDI
T1 sequence (P51449 250-518): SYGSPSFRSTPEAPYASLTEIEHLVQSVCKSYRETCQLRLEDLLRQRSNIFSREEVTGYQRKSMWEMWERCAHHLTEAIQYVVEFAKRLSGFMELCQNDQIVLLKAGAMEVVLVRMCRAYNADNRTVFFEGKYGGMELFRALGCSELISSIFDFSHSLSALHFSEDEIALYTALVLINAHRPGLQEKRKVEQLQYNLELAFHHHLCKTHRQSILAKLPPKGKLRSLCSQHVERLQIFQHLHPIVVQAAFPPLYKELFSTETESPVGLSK

CCn1c(C(C)(C)Oc2ccc(F)cc2F)nc2cc(NC(=O)Cc3ccc(S(=O)(=O)CC)cc3)ccc21 [PCCR-1]
IC50 (human RORγ LBD): 34.5 nM
IC50 [1]: 80.6 nM
IC50 (Alpha 1D): 550 nM
% Inhibition RARα (RARα; 1 µM): 0.00%
% Inhibition RARα (RARα; 10 µM): 0.00%
Fold over hRORγ, RARα (RARα; vs RORg IC50 31.87 nM): > 313.7 fold
% inhibition at 10 µM NK3 (NK3): 56%
IC50 (GABA Cl): 4800 nM
Nuclear receptors: binding assays (RORα, RARα, LXRα, LXRβ, RXR, FXR) [2]: NSE at 10 µM
IC50 (Ca Channel (L type)): 2600 nM
IC50 [3]: 66.5 nM
% Inhibition LXRβ (LXRβ; 1 µM): 28.11%
% Inhibition LXRβ (LXRβ; 10 µM): 46.66%
Fold over hRORγ, LXRβ (LXRβ; vs RORg IC50 31.87 nM): > 313.7 fold
